According to patent US20100256357A1, “HETEROCYCLES USEFUL AS INHIBITORS OF CARBONIC ANHYDRASE” (Agouron Pharmaceuticals, Inc., priority 2006, published 2010):
Read-outs that look alike come from different tables or passages of the source.

Target: T1, human CA-II (Homo sapiens, UniProt P00918)
T1 construct: purchased Sigma-Aldrich C6165
Test: Carbonic Anhydrase-II (CA-II) Fluorimetric Assay-IC50 Determination
Format: biochemical
Conditions: for inhibition at 0.01 µM: at 10 nM (c7); for inhibition at 0.01 µM / inhibition at 0.1 µM: read-out: CA-II % inhibition at concentration of column 7; for inhibition at 0.1 µM: at 100 nM (c7)
Description: Carbonic Anhydrase-II (CA-II) Fluorimetric Assay-IC50 Determination
Compounds were diluted in DMSO at the concentration of 1 mM, then 50 μM and transferred to a 96-well plate for further dilutions (1:3 dilution, 11 points) in duplicate. Highest final concentration of compound in this CA-II Fluorimetric assay is 1 μM. Assays were conducted in a final volume of 100 μL in 50 mM Tris/HCl (pH 7.6), 100 mM Na2SO4 and 0.005% Tween-20 in a 96-well black assay plate. Fluorescein diacetate was used as the substrate. Enzyme inhibition was determined by pipetting 8 μL of human CA-II (5 nM, from Sigma-Aldrich, product #: C6165) into assay plate contained 2 μL of compound and 2 μL of substrate (10 μM) in 88 μL of assay buffer. The rate of the hydrolysis of fluorescein diacetate were measured spectrophometrically at 488 nm (excitation), 538 nm (emission) and 530 nm (cutoff) using a Molecular Devices SpectraMax M2 fluorescence reader at 25° C.

[1] = given instead of Kd (ND), read-out: CA-II IC50
[2] = Kd ND, IC50 given instead, read-out: CA-II IC50 (where Kd is ND)

Row | Structure (SMILES) | inhibition at 0.01 µM [%] | inhibition at 0.1 µM [%] | IC50 [1] [nM] | further results
1 | NS(=O)(=O)c1ccc(-n2nc(C(=O)N3CCc4conc4CC3)nc2Cc2ccccc2)cc1 [Example R-61, 4-[5-benzyl-3-(4578-tetrahydro-6H-isoxazolo[34-d]azepin-6-ylcarbonyl)-1H-124-triazol-1-yl]benzenesulfonamide] | 94 | – | – | –
2 | CCc1ccc(CN(C)C(=O)c2nc(Cc3ccccc3)n(-c3ccc(S(N)(=O)=O)cc3)n2)cc1 [Example R-37, 1-[4-(aminosulfonyl)phenyl]-5-benzyl-N-(4-ethylbenzyl)-N-methyl-1H-124-triazole-3-carboxamide] | – | 99 | 2.89 | –
3 | NS(=O)(=O)c1ccc(-n2nc(C(=O)N3CC4CCCC3C4)nc2Cc2ccccc2)cc1 (stereo not drawn) [Example R-26, 4-[3-(6-azabicyclo[3.2.1]oct-6-ylcarbonyl)-5-benzyl-1H-124-triazol-1-yl]bezenesulfonamide] | – | 99 | 2.84 | –
4 | NS(=O)(=O)c1ccc(-n2nc(C(=O)N3CCCC(c4cc[nH]n4)C3)nc2Cc2ccccc2)cc1 (stereo not drawn) [Example R-67, 4-(5-benzyl-3-{[3-(1H-pyrazol-3-yl)piperidin-1-yl]carbonyl}-1H-124-triazol-1-yl)benzenesulfonamide] | 97 | – | 3.72 | –
5 | CCc1nc(CN(C)C(=O)c2nc(Cc3ccccc3)n(-c3ccc(S(N)(=O)=O)cc3)n2)no1 [Example R-70, 1-[4-(aminosulfonyl)phenyl]-5-benzyl-N-[(5-ethyl-124-oxadiazol-3-yl)methyl]-N-methyl-1H-124-triazole-3-carboxamide] | 94 | – | 3.06 | –
6 | NS(=O)(=O)c1ccc(-n2nc(C(=O)N3CC(Cc4ccccc4)C3)nc2Cc2ccccc2)cc1 [Example R-91, 4-{5-benzyl-3-[(3-benzylazetidin-1-yl)carbonyl]-1H-124-triazol-1-yl}benzenesulfonamide] | – | – | – | IC50 [2]: 3.19 nM
7 | CC(C)(C)N(CCC#N)C(=O)c1nc(Cc2ccccc2)n(-c2ccc(S(N)(=O)=O)cc2)n1 [Example R-96, 1-[4-(aminosulfonyl)phenyl]-5-benzyl-N-(tert-butyl)-N-(2-cyanoethyl)-1H-124-triazole-3-carboxamide] | – | – | – | IC50 [2]: 3.34 nM
8 | NS(=O)(=O)c1ccc(-n2nc(C(=O)N3C[C@@H](F)[C@H](F)C3)nc2Cc2ccccc2)cc1 [Example R-111, 4-(5-benzyl-3-{[(3R4R)-34-difluoropyrrolidin-1-yl]carbonyl}-1H-124-triazol-1-yl)benzenesulfonamide] | – | – | – | IC50 [2]: 3.14 nM

Continued, in another order:

Row | inhibition at 0.01 µM [%] | inhibition at 0.1 µM [%] | IC50 [1] [nM] | Structure (SMILES) | further results
9 | 97 | – | – | NS(=O)(=O)c1ccc(-n2nc(C(=O)N3CCC(c4ccccn4)C3)nc2Cc2ccccc2)cc1 (stereo not drawn) [Example R-55, 4-(5-benzyl-3-[(3-pyridin-2-ylpyrrolidin-1-yl)carbonyl]-1H-124-triazol-1-yl)benzenesulfonamide] | –
10 | 96 | – | – | CN(CCc1cn[nH]c1)C(=O)c1nc(Cc2ccccc2)n(-c2ccc(S(N)(=O)=O)cc2)n1 [Example R-62, 1-[4-(aminosulfonyl)phenyl]-5-benzyl-N-methyl-N-[2-(1H-pyrazol-4-yl)ethyl]-1H-124-triazole-3-carboxamide] | –
11 | – | 101 | – | NS(=O)(=O)c1ccc(-n2nc(C(=O)NCCNc3ccccn3)nc2Cc2ccccc2)cc1 [Example R-35, 1-[4-(aminosulfonyl)phenyl]-5-benzyl-N-[2-(pyridin-2-ylamino)ethyl]-1H-124-triazole-3-carboxamide] | –
12 | – | 99 | – | CCN(CCC#N)C(=O)c1nc(Cc2ccccc2)n(-c2ccc(S(N)(=O)=O)cc2)n1 [Example R-41, 1[4-(aminosulfonyl)phenyl]-5-benzyl-N-(2-cyanoethyl)-N-ethyl-1H-124-triazole-3-carboxamide] | –
13 | 96 | – | 2.83 | NS(=O)(=O)c1ccc(-n2nc(C(=O)N3CCc4ccccc4C3)nc2Cc2ccccc2)cc1 [Example R-52, 4-[5-benzyl-3-(34-dihydroisoqionolin-2(1H)-ylcarbonyl)-1H-124-triazol-1-yl]benzenesulfonamide] | –
